Assay results published in patent publication US20040132779A1, “Microsomal Triglyceride transfer protein inhibitor” (Pfizer Inc, priority 2002, published 2004).

Assay: Reduction of food intake assay
Type: in vivo
Conditions: beagles, oral gavage, 0.1, 0.25 or 0.5 mg/kg, Days 0 to 6
Description: Reduction of Food Intake Assay
Healthy, young adult (1-3 years of age) male and female beagles (Marshall Farms, North Rose, New York, N.Y. 14516) weighing 13-18 kg at the start of the treatment period are employed as test subjects.
The test compound is provided as a powder. The dosing solution, administered by oral gavage, is provided employing a 70/30 polyethylene glycol 400/water solution as the test vehicle. The dosing solution is prepared at 0.1 to 0.5 mg/ml activity so that 1 ml is delivered per kg body weight at dosages of 0.1 to 0.5 mg/kg. Following a seven day acclimation period, a ten day evaluation study is effected.
The study consists of three groups of animals containing 2 male and 2 female dogs, each. Each group of four animals is randomly assigned to receive 0.1, 0.25 or 0.5 mg/kg test compound. On Days 0 to 6, each dog receives the dosing solution administered as a single dose at Time 0 on each dosing day via a feeding tube. This is followed by a 10 ml water rinse to ensure total delivery of dosing solution. Each test animal is permitted ad libitum access to water and IAMS Mini-Chunks® (The Iams Company, P.O. Box 14597, Dayton, Ohio) dry food each day during the study and approximately 0.5-1 hours post-dose.

## Cc1cc(CNC(=O)[C@@H](NC(=O)C(F)(F)F)c2ccccc2)ccc1NC(=O)c1ccccc1-c1ccc(C(F)(F)F)cc1 [Example 1A-1, (S) 4′-Trifluoromethyl-biphenyl-2-carboxylic Acid (2-methyl-4-{[2-phenyl-2-(2,2,2-trifluoro-acetylamino)-acetylamino]-methyl}-phenyl)-amide]
  body weight: reduction in body weight
  fecal fat: increased fecal fat
  food intake: reduction in food intake
  serum cholesterol: reduction in serum cholesterol
